Test results taken from paper PMC5325082 (Molecular Pharmacology, 2017).

How the values were obtained:
Test in all cases: ACh-evoked currents, two-electrode voltage clamp in Xenopus laevis oocytes
Format in all cases: cell-based
[1] = biological target: T1, rat α9α10W55T receptor (Rattus norvegicus, UniProt P43144+Q9JLB5, W81T)
T1 construct: expressed in transfected cells; host or cells: Xenopus laevis oocytes (cRNA injection)
Text: (§1) cDNAs encoding Gallus gallus (chick) or Rattus norvegicus (rat) α9 and α10 nAChR subunits were subcloned into a modified pGEMHE vector for expression studies in Xenopus laevis oocytes. Capped cRNAs were in vitro transcribed from linearized plasmid DNA templates using RiboMAX Large Scale RNA Production System (Promega, Madison, WI). Mutant subunits were produced using Quick Change XL II kit (Stratagene, La Jolla, CA). Amino acid sequences of rat and chicken α9, α10, and Torpedo α1 subunits were aligned using ClustalW (EMBL-EBI, Wellcome Genome Campus, Hinxton, Cambridgeshire). Residues were numbered according to the corresponding Torpedo α1 subunit mature protein ([Karlin, 2002]).
(§2) The maintenance of Xenopus laevis and the preparation and cRNA injection of stage V and VI oocytes have been described in detail elsewhere ([Verbitsky et al., 2000]). Typically, oocytes were injected with 50 nl of RNase-free water containing 0.01–1.0 ng of cRNA (at a 1:1 molar ratio when pairwise combined) and maintained in Barth’s solution at 18°C. Electrophysiological recordings were performed 2–6 days after cRNA injection under two-electrode voltage clamp with an Oocyte Clamp OC-725B or C amplifier (Warner Instruments Corp., Hamden, CT). Recordings were filtered at a corner frequency of 10 Hz using a 900BT Tunable Active Filter (Frequency Devices Inc., Ottawa, IL). Data acquisition was performed using a Patch Panel PP-50 LAB/1 interface (Warner Instruments Corp.) at a rate of 10 points per second. Both voltage and current electrodes were filled with 3 M KCl and had resistances of ∼1 MΩ. Data were analyzed using Clampfit from the pClamp 6.1 software (Molecular Devices, Sunnyvale, CA). During electrophysiological recordings, oocytes were continuously superfused (∼15 ml/min) with normal frog saline composed of: 115 mM NaCl, 2.5 mM KCl, 1.8 mM CaCl2, and 10 mM HEPES buffer, pH 7.2. […] Unless otherwise indicated, the membrane potential was clamped to −70 mV. To minimize activation of the endogenous Ca^2+ sensitive chloride current ([Elgoyhen et al., 2001]), all experiments were performed in oocytes incubated with the Ca^2+ chelator 1,2-bis(2-aminophenoxy)ethane-N,N,N′,N′-tetraacetic acid (acetoxymethyl ester) (100 µM) for 3 hours before electrophysiological recordings.
(§3) Concentration-response curves were normalized to the maximal agonist response in each oocyte. The mean and S.E.M. values of the responses are represented. […] Data were analyzed using Clampfit from the pClamp 6.1 software. […]

[2] = biological target: rat α9α10R117M receptor (Rattus norvegicus, UniProt P43144+Q9JLB5, R143M)
Chain of rat α9α10R117M receptor (P43144 26-479): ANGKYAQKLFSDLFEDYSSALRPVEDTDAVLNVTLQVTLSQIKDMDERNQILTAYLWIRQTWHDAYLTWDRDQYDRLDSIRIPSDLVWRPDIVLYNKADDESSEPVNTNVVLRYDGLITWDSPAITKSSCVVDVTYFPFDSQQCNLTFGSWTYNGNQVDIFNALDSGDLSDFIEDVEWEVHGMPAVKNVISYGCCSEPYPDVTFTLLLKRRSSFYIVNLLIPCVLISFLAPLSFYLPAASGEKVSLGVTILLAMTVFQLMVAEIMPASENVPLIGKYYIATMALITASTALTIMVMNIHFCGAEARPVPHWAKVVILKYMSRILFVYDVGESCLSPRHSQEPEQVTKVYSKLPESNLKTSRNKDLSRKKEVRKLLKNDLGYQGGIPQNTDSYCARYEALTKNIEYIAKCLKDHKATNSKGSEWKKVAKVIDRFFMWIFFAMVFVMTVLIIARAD
Chain of rat α9α10R117M receptor (Q9JLB5 25-447 R143M): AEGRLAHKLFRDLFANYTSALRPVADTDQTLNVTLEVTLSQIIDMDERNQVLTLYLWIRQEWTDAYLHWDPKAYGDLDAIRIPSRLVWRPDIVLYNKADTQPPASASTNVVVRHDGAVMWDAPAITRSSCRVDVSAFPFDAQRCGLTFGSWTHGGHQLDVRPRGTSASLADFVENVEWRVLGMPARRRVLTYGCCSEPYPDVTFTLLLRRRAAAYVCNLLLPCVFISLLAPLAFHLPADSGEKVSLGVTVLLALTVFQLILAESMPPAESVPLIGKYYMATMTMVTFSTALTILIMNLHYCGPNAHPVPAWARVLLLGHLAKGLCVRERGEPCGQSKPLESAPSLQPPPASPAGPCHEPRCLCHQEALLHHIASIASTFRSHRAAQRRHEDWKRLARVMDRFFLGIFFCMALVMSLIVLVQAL
Text: as §1, §2, §3

[3] = biological target: rat α9α10 W55T/R117M receptor (Rattus norvegicus, UniProt P43144+Q9JLB5, R143M/W81T)
Chain of rat α9α10 W55T/R117M receptor (P43144 26-479): as the sequence (P43144 26-479) above
Chain of rat α9α10 W55T/R117M receptor (Q9JLB5 25-447 W81T/R143M): as the sequence (Q9JLB5 25-447 R143M) above, with W57T counted along it
Text: as §1, §2, §3

T1 sequence (P43144 26-479): as the sequence (P43144 26-479) above
T1 sequence (Q9JLB5 25-447 W81T): as the sequence (Q9JLB5 25-447 R143M) above, with W57T, M119R counted along it

CC(=O)OCC[N+](C)(C)C [ACh, acetylcholine]
Imax (maximal evoked current) [1]: 177 ± 81 nA | Imax (maximal evoked current) [2]: 107 ± 38 nA | Imax (maximal evoked current) ([3]; rat α9α10 W55T/R117M, oocytes): 245 ± 83 nA | Free energy coupling, double-mutant cycle ([3]; α10W55 and α10R117): -1.47 kcal/mol
